In patent publication US20160346295A1, “Selective Estrogen Receptor Modulators With Short Half-Lives and Uses Thereof” (REPROS THERAPEUTICS INC., priority 2012, published 2016):
Each block holds one compound with its values, some of them ahead of it.

Tests used:
[1] = blood plasma; cited from earlier work
[2] = human, in vivo, po
Experimental: A clinical study to estimate the pharmacokinetic (PK) profile of enclomiphene (trans-clomiphene) following single-dose and steady-state doses administered orally. 52 adult males between 18 and 75 years of age with total serum testosterone level<250 ng/dl or between 250 to 300 ng/dl and FSH/LH levels within the normal range, were randomly assigned to one of the following five treatment groups: (i) 12.5 mg enclomiphene/day (ii) 25 mg enclomiphene/day (iii) 50 mg enclomiphene/day (trans-clomiphene) (iv) Androgel® (1% topical testosterone applied daily) or (v) placebo. Enclomiphene citrate was provided as 12.5 mg capsules and orally administered once (12.5 mg arm) twice (25 mg arm) or four times (50 mg arm) per day for 14 consecutive days. Single-dose and steady-state PK assessments were preformed in a subset of these males following the first (Day 1) and last (Day 14) dose. […] Pre-dose plasma enclomiphene concentrations were also measured on Day 11 using a single blood sample. […] PK parameters were calculated using noncompartmental methods for subjects randomized to enclomiphene. The accumulation ratio, defined as the AUC0-24 on Day 14, divided by the AUC0-24 value on Day 1 was calculated.
The accumulation index for each enclomiphene dose group was calculated based on the arithmetic mean of the individual ratio of AUC(0-24) on Day 14 divided by AUC(0-24) on Day 1. […]

[3] = tested on: rodent, baboon, rabbit and dog models; experiment: Animal safety pharmacology studies; type: in vivo
[4] = tested on: adult human males with secondary hypogonadism; experiment: One year open label extension study, long term oral trans-clomiphene 12.5 mg daily
[5] = majority or all of the timepoints

SMILES: COc1ccc(-c2sc3cc(O)ccc3c2Oc2ccc(OCCN3CCCCC3)cc2)cc1 [Arzoxifene]
Half-Life [1]: 30 h

SMILES: CCN(CC)CCOc1ccc(C(=C(Cl)c2ccccc2)c2ccccc2)cc1 [Clomid]
Half-Life [1]: 120 to 170 h

SMILES: CC/C(=C(/c1ccc(OCCN(C)C)cc1)c1cccc(O)c1)c1ccccc1 [Droloxifene, E-1-[4′-(2-dimethylaminoethoxy)phenyl]-1-(3′-hydroxyphenyl)-2-phenyl-1-butene]
Half-Life [1]: 24 h

half life of enclomiphene based on the PK data obtained [2]: ~10.5 h
discontinuation due to a reduction in visual acuity ([4]; during the study): No subjects were discontinued
subjects with events considered severe ([4]; during the study): nine
SMILES: CCN(CC)CCOc1ccc(/C(=C(\Cl)c2ccccc2)c2ccccc2)cc1 [Enclomiphene, trans-clomiphene]
adverse effects in the central nervous, respiratory or cardiovascular systems [3]: no adverse effects
other questionnaires of sexual function (DISF-SR II (M), MSDS) ([4]; 12.5 mg daily oral): no concomitantly significant changes
overall mean increases in total serum testosterone from baseline to 1 year ([4]; 12.5 mg daily oral): statistically significant
subjects who experienced serious adverse effects (SAEs) ([4]; 12.5 mg daily oral up to one year): 5%
subjects who experienced at least one adverse event considered related to the study drug ([4]; 19/101 subjects): 18.8%
subjects with mean total serum testosterone levels within the normal reference range ([4]; at 1 year, normal range 300-1040 ng/dl, 12.5 mg daily oral): 62.5%
hematology, blood chemistry, urinalysis, vital signs, physical exam, PSA values, ECG readings ([4]; during the study): no clinically relevant changes
subjects discontinued from the study due to AEs ([4]; during the study): Nine
subjects who experienced at least one adverse event ([4]; during the study): 51.5%
libido, libido component of IIEF questionnaire ([4]; from baseline at months 4, 6 and 12): Statistically significant improvements
DHT/testosterone ratio change [4, 5]: Statistically significant increases
FSH change [4, 5]: Statistically significant increases
LH change [4, 5]: Statistically significant increases
dihydrotestosterone (DHT) change [4, 5]: Statistically significant increases
estradiol change [4, 5]: Statistically significant increases
high-density lipoprotein cholesterol (HDL-C) change from baseline [4, 5]: Statistically significant decreases
prolactin change [4, 5]: statistically significant decreases
sex hormone binding globulin (SHBG) change [4, 5]: Statistically significant increases
total cholesterol (TC) change from baseline [4, 5]: Statistically significant decreases
triglycerides change from baseline [4, 5]: Statistically significant decreases
testicular size, significance of increase ([4]; orchidometer): statistically significant increase was observed at Month 6 only

SMILES: CC/C(=C(\c1ccc(I)cc1)c1ccc(OCCN2CCCC2)cc1)c1ccccc1 [Idoxifene]
Half-Life [1]: 3 weeks

SMILES: Oc1ccc2c(c1)CC[C@H](c1ccccc1)[C@@H]2c1ccc(OCCN2CCCC2)cc1 [Lasofoxifene]
Half-Life [1]: 140 h

SMILES: COc1ccc2c(c1)OC(C)(C)[C@@H](c1ccccc1)[C@@H]2c1ccc(OCCN2CCCC2)cc1 [Levormeloxifene, (−)-3R,4R-trans-7-methoxy-2,2-dimethyl-3-phenyl-4-{4-[2-(pyrrolidin-1-yl)ethoxy]phenyl} chromane]
Half-Life [1]: 24 h

SMILES: COc1ccc2c(c1)OC(C)(C)C(c1ccccc1)C2c1ccc(OCCN2CCCC2)cc1 (stereo not shown) [Ormeloxifene]
Half-Life [1]: 170 h

SMILES: OCCOc1ccc(/C(=C(/CCCl)c2ccccc2)c2ccccc2)cc1 [Ospemifene]
Half-Life [1]: 26 h

SMILES: O=C(c1ccc(OCCN2CCCCC2)cc1)c1c(-c2ccc(O)cc2)sc2cc(O)ccc12 [Raloxifene, 6-hydroxy-2(4-hydroxyphenyl)-3-[4-(2-piperdinoethoxy)benzoyl]benzo[b]thiophene]
Half-Life [1]: 27 h

SMILES: CC/C(=C(\c1ccccc1)c1ccc(OCCN(C)C)cc1)c1ccccc1 [Tamoxifen]
Half-Life [1]: 120 to 170 h
